Laboratory results taken from article PMC12150283, “Synthesis of new Ag(I) and Cd(II) hydrozanomide-based complexes with antibacterial and anticancer properties” (RSC Advances, 2025).

Tests used:
S. aureus ATCC 25923 = assay: Diffusion-well method, inhibition zones; type: cell-based, Staphylococcus aureus; settings: 500 µg/mL, wells 10 mm
Experimental: (§1) The antibacterial activity of tested samples was assessed against both gram-positive bacteria (Staphylococcus aureus ATCC 25923, Staphylococcus aureus ATCC 6538, Staphylococcus epidermidis ATCC 12228, Enterococcus faecalis ATCC 29212, Listeria monocytogenes ATCC 19115, Bacillus subtilis ATCC 6633, Bacillus cereus ATCC 10876) and gram-negative bacteria (Escherichia coli ATCC 10530, Salmonella typhimurium ATCC 14028). Antibacterial properties were evaluated using both the dilution method (employing DMSO and 96-well plates) and the diffusion-well method (using Mueller Hinton Agar, Merck, Germany).
(§2) 24 hour bacterial cultures with a density of 1–2 × 10^8 CFU mL^−1 were plated (0.1 mL) on Mueller–Hinton Agar (Merck, Germany). Subsequently, wells with a diameter of 10 mm were cut out from and filled with 100 μL of the tested compound at a concentration of 10–500 μg mL^−1 (diluted in DMSO). After an 18-hour incubation at either 30 °C (for Bacillus ssp.) or 37 °C (for other tested microorganisms), the inhibition zones around the wells were measured, and the results were expressed in millimetres (Table S9 ^†).

S. aureus ATCC 6538 = assay: Diffusion-well method, inhibition zones; type: cell-based, Staphylococcus aureus; settings: 500 µg/mL, wells 10 mm
Experimental: as §1, §2

E. faecalis ATCC 29212 = assay: Diffusion-well method, inhibition zones; type: cell-based, Enterococcus faecalis; settings: 500 µg/mL, wells 10 mm
Experimental: as §1, §2

B. cereus ŁOCK 0807 = assay: Diffusion-well method, inhibition zones; type: cell-based, Bacillus cereus; settings: 500 µg/mL, wells 10 mm
[1] = tested on: L. monocytogenes ATCC 19115; assay: Diffusion-well method, inhibition zones; type: cell-based, Listeria monocytogenes; settings: 500 µg/mL, wells 10 mm
Experimental: as §1, §2

B. subtilis ATCC 6633 = assay: Diffusion-well method, inhibition zones; type: cell-based, Bacillus subtilis; settings: 500 µg/mL, wells 10 mm
Experimental: as §1, §2

[2] = tested on: S. Typhimurium ATCC 14028; assay: Diffusion-well method, inhibition zones; type: cell-based, Salmonella typhimurium; settings: 500 µg/mL, wells 10 mm
Experimental: as §1, §2

[3] = tested on: glioblastoma LN-229 cells; assay: MTT cell viability assay; type: cell-based, human; settings: 48 hours of incubation
Experimental: (§3) The glioblastoma cell lines LN-229 and U87 and the reference human normal skin fibroblast BJ were obtained from the American Type Culture Collection (ATCC). Cells were grown as monolayers when cultured in cell culture flasks and cultured in Dulbecco's Modified Eagle Medium (DMEM) – LN-229 and Eagle's Minimum Essential Medium (EMEM) – U87 and BJ, supplemented with 10% (v/v) fetal bovine serum, penicillin (10 000 U mL^−1), streptomycin (10 mg mL^−1) and amphotericin B (250 μg mL^−1). The cells were incubated at 37 °C, 5% CO2 atmosphere. The cells were maintained in the logarithmic growth phase by regular passage at 80% confluence.
(§4) The cytotoxicity of the tested compounds was evaluated against both human glioblastoma LN-229 and U-87 as well as normal BJ cell lines. The cells were plated in 96-well culture plates (2 × 10^4 well) and after 24 h incubation the cells were treated with the tested compounds in the concentration range 1–50 μM. The cells were cultured for the next 48 h. The cytotoxicity of the compounds was evaluated using the MTT colorimetric method as previously described.[28,29] IC50 values were determined using the AAT Bioquest IC50 calculator as the concentration of compounds capable of reducing cell viability by 50%. The experiment was performed in triplicate for each concentration. To examine the cytotoxic effect of compounds on cell morphology, cells were examined under an inverted phase contrast microscope Nikon Eclipse Ti with NIS Element software (Tokyo, Japan).

glioblastoma U87 cells = assay: MTT cell viability assay; type: cell-based, human; settings: 48 hours of incubation
Experimental: as §3, §4

[4] = tested on: normal skin fibroblast BJ cells; assay: MTT cell viability assay; type: cell-based, human; settings: BJ normal fibroblasts; 48 hours of incubation
Experimental: as §3, §4

[5] = Time-dependent UV-vis solution stability in DMSO; type: physicochemical; settings: 0 min to 48 h, room temperature
From the text: The stability of metal complexes is a crucial property that provides insight into their interactions with biological molecules, as it directly impacts their reactivity, bioavailability, and effectiveness in therapeutic applications. Additionally, the solubility of these complexes in dimethyl sulfoxide (DMSO) is of considerable importance, as solubility data are essential for optimizing storage conditions and ensuring compatibility with biological assays.[39] DMSO, a widely used solvent in drug discovery, serves as a medium that supports the stability and bioavailability of complexes under assay conditions, which is critical for maintaining the integrity of analytical protocols and enabling accurate assessments of biological activity. For the obtained complexes, the time-dependent UV-vis investigations in DMSO (Fig. 5 and S9 ^†) were carried out from 0 min to 48 h (0 min, 30 min, 1 h, 2 h, 3 h, 24 h, 48 h).
The sample solutions (50 μL (1.0 × 10^−3 M)) of the complexes were prepared in DMSO (Sigma Aldrich, ≥99.9%). The absorption spectra of the complexes were measured with increasing time (0 min, 30 min, 60 min, 2 h, 3 h, 24 h, 48 h) at room temperature. All measurements were performed on the Shimadzu UV-2401PC.

With NC(=NN=Cc1ccccc1)c1cncc(Cl)n1.O.O=[N+]([O-])[O-].[Ag+] [Complex 1, AgL1NO3 × H2O] the Inhibition zone (S. aureus ATCC 25923) was 20 mm, the Inhibition zone (S. aureus ATCC 6538) was 16 mm and the Inhibition zone (E. faecalis ATCC 29212) was 17 mm. For the same compound, the Inhibition zone (B. cereus ŁOCK 0807) was 17 mm, the Inhibition zone [1] was 19 mm and the Inhibition zone (B. subtilis ATCC 6633) was 17 mm. For the same compound, the Inhibition zone [2] was 17 mm, the IC50 [3] was 25.2 ± 3.75 µM and the IC50 (glioblastoma U87 cells) was 8.15 ± 2.67 µM. For the same compound, the IC50 [4] was 20.5 ± 5.21 µM and the hypochromic effect [5] was 0.84%.
